Reference: ChEMBL document CHEMBL5247662, “Design, syntheses and biological evaluation of natural product aiphanol derivatives and analogues: Discovery of potent anticancer agents” (Bioorg Med Chem Lett, 2023)

What was measured:
Format in all cases: functional, cell-based
HCT-116 = assay: Antiproliferative activity against human HCT-116 cells assessed as inhibition of cell growth measured after 48 hrs by CCK-8 assay; conditions: HCT-116, 48 h
HT-29 = assay: Antiproliferative activity against human HT-29 cells assessed as inhibition of cell growth measured after 48 hrs by CCK-8 assay; conditions: HT-29, 48 h
KYSE-30 = assay: Antiproliferative activity against human KYSE-30 cells expressing luciferase assessed as inhibition of cell growth measured after 48 hrs by CCK-8 assay; conditions: KYSE-30, 48 h
Bel-7402 = assay: Antiproliferative activity against human Bel-7402 cells assessed as inhibition of cell growth measured after 48 hrs by CCK-8 assay; conditions: Bel-7402, 48 h
AGS = assay: Antiproliferative activity against human AGS cells assessed as inhibition of cell growth measured after 48 hrs by CCK-8 assay
MCF7 = assay: Antiproliferative activity against human MCF7 cells assessed as inhibition of cell growth measured after 48 hrs by CCK-8 assay; conditions: MCF7, 48 h
SW1990 = assay: Antiproliferative activity against human SW1990 cells assessed as inhibition of cell growth measured after 48 hrs by CCK-8 assay; conditions: SW1990, 48 h
HepG2 = assay: Antiproliferative activity against human HepG2 cells assessed as inhibition of cell growth measured after 48 hrs by CCK-8 assay; conditions: HepG2, 48 h

Structure (SMILES)	IC50 (HCT-116) [µM]	IC50 (HT-29) [µM]	further results
CCOC(=O)/C=C/c1ccc2c(c1)O[C@@H](c1cc(OC)c(O)c(OC)c1)[C@H](CO)O2	> 50	> 50	–
COc1cc([C@@H]2Oc3cc(/C=C/c4cc(O)cc(O)c4)ccc3O[C@H]2CN)cc(OC)c1O	27	14.1	–
COc1cc([C@@H]2Oc3cc(/C=C/c4cc(O)cc(O)c4)ccc3O[C@H]2CO[C@@H]2O[C@H](CO)[C@@H](O)[C@H](O)[C@H]2O)cc(OC)c1O	> 200	> 200	–
COc1cc([C@@H]2Oc3cc(/C=C/c4cc(O)cc(O)c4)ccc3O[C@H]2CNC(=O)S(=O)(=O)c2ccc(C)cc2)cc(OC)c1O	4.63	5.89	IC50 (KYSE-30): 17.9 µM; IC50 (Bel-7402): 6.29 µM; IC50 (AGS): 4.95 µM; IC50 (MCF7): 6.31 µM; IC50 (SW1990): 9.65 µM; IC50 (HepG2): 7.44 µM
COc1cc([C@@H]2Oc3cc(CCc4cc(O)cc(O)c4)ccc3O[C@H]2CO)cc(OC)c1O	49.8	16.4	–
OC[C@@H]1Oc2ccc(/C=C/c3cc(O)cc(O)c3)cc2O[C@H]1c1cc(F)c(O)c(F)c1	> 50	41.4	–
OC[C@@H]1Oc2ccc(/C=C/c3cc(O)cc(O)c3)cc2O[C@H]1c1ccc(O)cc1	> 50	24.1	–
COc1cc([C@@H]2Oc3cc(/C=C/c4cc(O)cc(O)c4)ccc3O[C@H]2CNC(=O)c2ccc(C(F)(F)F)cc2)cc(OC)c1O	11.6	8.84	–
COc1cc([C@@H]2Oc3cc(/C=C/c4cc(OC(C)=O)cc(OC(C)=O)c4)ccc3O[C@H]2COC(C)=O)cc(OC)c1OC(C)=O	19.9	10.4	–
COc1cc([C@@H]2Oc3cc(/C=C/c4cc(O)cc(O)c4)ccc3O[C@H]2CNC(=O)C(C)C)cc(OC)c1O	33.1	13.9	–
OC[C@@H]1Oc2ccc(/C=C/c3cc(O)cc(O)c3)cc2O[C@H]1c1cc(Br)c(O)c(Br)c1	39.7	30.5	–
COc1cc([C@@H]2Oc3cc(/C=C/c4cc(O)cc(O)c4)ccc3O[C@H]2CNC(C)=O)cc(OC)c1O	47.7	8.52	–
COc1cc([C@@H]2Oc3ccccc3O[C@H]2CO)cc(OC)c1O	> 100	> 100	–
COc1cc([C@@H]2Oc3cc(/C=C/c4cc(O)cc(O)c4)ccc3O[C@H]2CNC(=O)c2ccc(F)c(F)c2)cc(OC)c1O	14.2	15.6	–
CCCCCCCCCCCCC(=O)NC[C@@H]1Oc2ccc(/C=C/c3cc(O)cc(O)c3)cc2O[C@H]1c1cc(OC)c(O)c(OC)c1	14.5	7.7	–
COc1ccc(C(=O)NC[C@@H]2Oc3ccc(/C=C/c4cc(O)cc(O)c4)cc3O[C@H]2c2cc(OC)c(O)c(OC)c2)cc1	15.9	16.1	–
COc1cc([C@@H]2Oc3cc(/C=C/c4cc(O)cc(O)c4)ccc3O[C@H]2CNC(=O)c2ccccc2)cc(OC)c1O	15.9	19.6	–
COc1cc([C@@H]2Oc3cc(/C=C/c4cc(O)cc(O)c4)ccc3O[C@H]2CNC(=O)c2ccc(F)cc2)cc(OC)c1O	16.8	7.9	–
COc1cc([C@@H]2Oc3cc(/C=C/c4cc(OC(C)=O)cc(OC(C)=O)c4)ccc3O[C@H]2CO)cc(OC)c1OC(C)=O	30.9	7.92	–
COc1cc([C@@H]2Oc3cc(/C=C/c4cc(O)cc(O)c4)ccc3O[C@H]2CO[C@@H]2O[C@H](CO)[C@H](O)[C@H](O)[C@H]2O)cc(OC)c1O	> 200	> 200	–
OC[C@@H]1Oc2ccc(/C=C/c3cc(O)cc(O)c3)cc2O[C@H]1c1cc(Cl)c(O)c(Cl)c1	> 50	55.3	–
COc1cc([C@@H]2Oc3cc(/C=C/c4cc(O)cc(O)c4)ccc3O[C@H]2CNC(=O)c2cc(F)c(F)c(F)c2)cc(OC)c1O	12.3	7.08	–
COc1cc([C@@H]2Oc3cc(/C=C/c4cc(O)cc(O)c4)ccc3O[C@H]2CNC(=O)S(C)(=O)=O)cc(OC)c1O	29.5	16.5	–

Now from value to compound, other results behind:

IC50 (HCT-116) [µM]	IC50 (HT-29) [µM]	Structure (SMILES)	further results
> 100	> 100	COc1cc([C@@H]2Oc3cc(/C=C/c4ccc(NC(C)=O)cc4)ccc3O[C@H]2CO)cc(OC)c1O	–
21.2	10.3	COC(=O)c1ccc(/C=C/c2ccc3c(c2)O[C@@H](c2cc(OC)c(O)c(OC)c2)[C@H](CO)O3)cc1	–
> 100	> 100	COc1cc([C@@H]2Oc3cc(C=O)ccc3O[C@H]2CO)cc(OC)c1O	–
12.4	14.8	COc1cc([C@@H]2Oc3cc(/C=C/c4ccccc4C#N)ccc3O[C@H]2CO)cc(OC)c1O	–
7.16	4.63	COc1cc([C@@H]2Oc3cc(/C=C/c4ccc([N+](=O)[O-])cc4)ccc3O[C@H]2CO)cc(OC)c1O	–
8.83	14.9	COc1cc([C@@H]2Oc3cc(/C=C/c4ccc5ccccc5n4)ccc3O[C@H]2CO)cc(OC)c1O	–
11.4	13.5	COc1cc([C@@H]2Oc3cc(/C=C/c4cccc(C#N)c4)ccc3O[C@H]2CO)cc(OC)c1O	–
27.2	25.1	COc1cc([C@@H]2Oc3cc(/C=C/c4ccc(C(F)(F)F)cc4)ccc3O[C@H]2CO)cc(OC)c1O	–
17.1	33	COc1cc([C@@H]2Oc3cc(/C=C/c4ccccn4)ccc3O[C@H]2CO)cc(OC)c1O	–
2.02	2.42	COc1cc([C@@H]2Oc3cc(/C=C/c4ccc(C#N)cc4)ccc3O[C@H]2CO)cc(OC)c1O	IC50 (KYSE-30): 2.97 µM; IC50 (Bel-7402): 0.86 µM; IC50 (AGS): 0.81 µM; IC50 (MCF7): 1.21 µM; IC50 (SW1990): 1.52 µM; IC50 (HepG2): 2.23 µM
16.7	19.1	COc1cc([C@@H]2Oc3cc(-c4ccccc4)ccc3O[C@H]2CO)cc(OC)c1O	–
12.4	9.14	COc1cc([C@@H]2Oc3cc(/C=C/c4ccccc4)ccc3O[C@H]2CO)cc(OC)c1O	–
42.2	22.9	COc1cc([C@@H]2Oc3cc(/C=C/c4ccsc4)ccc3O[C@H]2CO)cc(OC)c1O	–
28.3	25	COc1cc([C@@H]2Oc3cc(/C=C/c4ccc(I)cc4)ccc3O[C@H]2CO)cc(OC)c1O	–
20	8.36	COc1cc([C@@H]2Oc3cc(/C=C/c4cc(O)cc(O)c4)ccc3O[C@H]2CO)cc(OC)c1O	IC50 (KYSE-30): 61.5 µM; IC50 (Bel-7402): 64.9 µM; IC50 (AGS): 38.9 µM; IC50 (MCF7): 45.3 µM; IC50 (SW1990): 28.3 µM; IC50 (HepG2): 39 µM
16	14	COc1cc(/C=C/c2ccc3c(c2)O[C@@H](c2cc(OC)c(O)c(OC)c2)[C@H](CO)O3)cc(OC)c1	–
3.86	4.4	COc1cc(C2Oc3cc(/C=C/c4nc(C)c5ccccc5n4)ccc3OC2CO)cc(OC)c1O (single isomer, unassigned)	–
